In patent publication US7674771B2, “Antimicrobial peptides and utilization of the same” (Toagosei Co., Ltd, priority 2003, dated 2010):
Where two headings read alike, the source gives them in different places. Peptide text beside a SMILES is read from it.

Assays:
[1] = tested on: Escherichia coli IFO 3972; experiment: MIC by liquid medium dilution technique, 96-well microplate, gram-negative bacteria; type: cell-based
Protocol: (§1) Regarding the antimicrobial peptide (samples 1 to 20) related to the present invention, the antimicrobial activities (minimum inhibitory concentration: MIC) with respect to gram-negative bacteria (Escherichia coli IFO 3972) and gram-positive bacteria (Staphylococcus aureus IFO 12732) were determined by a liquid medium dilution technique using a 96-well microplate.
(§2) First, a drug (synthesized polypeptide) solution having a concentration of 40 times of the highest test concentration was prepared using sterile distilled water, and liquid-bouillon mediums (more specifically, “Mueller Hinton Broth” manufactured by DIFCO) including cation and having drug concentrations of 100, 50, 25, 12.5, 6.3, 3.1, 1.6 and 0.8 μM were respectively produced. The cation included was prepared as follows: dissolving 3.68 g of CaCl2.2H2O in 100 mL of purified water (10 mg.Ca^2+/mL), and thereafter adding 500 μL thereof into 100 mL of Mueller Hinton Broth; and dissolving 8.36 g of MgCl2.6H2O in 100 mL of purified water (10 mg.Mg^2+/mL), and thereafter adding 250 μL thereof into 100 mL of Mueller Hinton Broth. Thereafter, the produced liquid-bouillon mediums including the drug of each concentration were then fed to the 96-well microplate at […] a time.
(§3) At the same time, test bacteria cultured for 18 hours at 37° C. on an agar plate (“Muller Hinton Agar” manufactured by DIFCO) were gathered by scratching with a loop, and then suspended in a sterilized physiological saline. Bacterial suspension 5 μL prepared at an equivalent of 2×10^7 cells/mL was respectively inoculated (number of bacteria to be tested: approximately 1×10^6 cells/mL) onto the drug solution and fed to each well of the above-described microplate. After inoculation, the microplate was then incubated in an incubator at 37° C., and the presence of bacteria was evaluated based on the turbidity 24 hours later. The minimum drug concentration (polypeptide concentration), in which an increased in turbidity caused by bacteria was not detected at the time of measurement, was defined as MIC (minimum inhibitory concentration) (unit: μM) in the present embodiment. In addition, MIC were determined in the same manner using polymyxin B as a comparison.

[2] = tested on: Staphylococcus aureus IFO 12732; type: cell-based
Protocol: as §1, §2, §3

S. aureus = type: cell-based, Staphylococcus aureus
Protocol: as §2, §3
Next, the antimicrobial activities (MIC) against gram-positive bacteria (S. aureus) in the presence of serum were tested with the same method as Example 2. […] Thereafter, the produced liquid-bouillon mediums including the drug and the serum of each concentration were then fed to the 96-well microplate at […] a time, and MIC were determined by the method same as Example 2. Sample X in the table is a mixture of sample 1 and sample 16 based on a mass ratio of 1:1. “-” in the table indicate “untested”.

[3] = Mueller Hinton Broth with cation, 37° C., turbidity after 24 hours

Molecule	Antimicrobial Activities (MIC) E. coli ([1]; IFO 3972, 24 h) [µM]	Antimicrobial Activities (MIC) S. aureus ([2]; IFO 12732, 24 h) [µM]	also measured
H-RIRKKLRYIGSR-NH2 [comparative sample 6, RIRKKLRYIGSR-CONH2, reference compound]	>100	50	
H-RLLTAKMLMWWMLR-NH2 [comparative sample 5, RLLTAKMLMWWMLR-CONH2, reference compound]	>100	12.5	
H-RIRKKLRLMWWMLAR-NH2 [sample 7, RIRKKLRLMWWMLAR-CONH2]	6.3	3.1	Antimicrobial Activities (MIC) against S. aureus, horse serum concentration 10% (S. aureus): 3.1 µM; Antimicrobial Activities (MIC) against S. aureus, horse serum concentration 20% (S. aureus): 6.3 µM; Antimicrobial Activities (MIC) against S. aureus, horse serum concentration 50% (S. aureus): 6.3 µM
H-RIRKKLRLMWWMLR-NH2 [sample 14, RIRKKLRLMWWMLR-CONH2]	6.3	3.1	Antimicrobial Activities (MIC) against S. aureus, horse serum concentration 10% (S. aureus): 6.3 µM
H-RKKKRKVFFYMVIR-NH2 [sample 11, RKKKRKVFFYMVIR-CONH2]	6.3	3.1	
H-RKRRLMWWMLKKLR-NH2 [sample 17, RKRRLMWWMLKKLR-CONH2]	6.3	3.1	
H-LKRKLQRLMWWMLR-NH2 [sample 18, LKRKLQRLMWWMLR-CONH2]	12.5	6.3	
H-LMWWML-NH2 [comparative sample 3, LMWWML-CONH2, reference compound]	>100	>100	
H-RKKKRKVYIGSR-NH2 [comparative sample 7, RKKKRKVYIGSR-CONH2, reference compound]	100	12.5	
H-RKKKRKVVVYWLLR-NH2 [sample 9, RKKKRKVVVYWLLR-CONH2]	12.5	3.1	
C[C@@H](O)[C@H](N)C(=O)NCC(=O)N[C@H](C(=O)NCC(N)=O)[C@@H](C)O [comparative sample 2, TGTG-CONH2, reference compound] (H-TGTG-NH2)	>100	>100	
H-RKKKRKVLYLGAVR-NH2 [sample 12, RKKKRKVLYLGAVR-CONH2]	50	12.5	
H-LMWWMLRIRKKLRVGR-NH2 [sample 20, LMWWMLRIRKKLRVGR-CONH2]	6.3	3.1	
H-RAVTLYLGAVAA-NH2 [comparative sample 4, RAVTLYLGAVAA-CONH2, reference compound]			Antimicrobial Activities (MIC) E. coli [1, 3]: >100 µM; Antimicrobial Activities (MIC) S. aureus [2, 3]: >100 µM
H-RKRKRKRLMWWML-NH2 [sample 13, RKRKRKRLMWWML-CONH2]	6.3	3.1	
H-RKKKRKVLLTAKMR-NH2 [sample 10, RKKKRKVLLTAKMR-CONH2]	50	12.5	
H-RKKRRQRRRLMWWML-NH2 [sample 19, RKKRRQRRRLMWWML-CONH2]	12.5	6.3	
H-RKKKRKVLMWWML-NH2 [sample 2, RKKKRKVLMWWML-CONH2]	12.5	3.1	
H-RKKKRKVLMWWMLKPV-NH2 [sample 21, RKKKRKVLMWWMLKPV-CONH2]			Antimicrobial Activities (MIC) against S. aureus, horse serum concentration 10% (S. aureus): 1.6 µM; antimicrobial activity against S. aureus in the presence of serum, in words (S. aureus; horse serum, Table 3): particularly high antimicrobial activity
H-LMWWMLRKKKRKV-NH2 [sample 5, LMWWMLRKKKRKV-CONH2]	50	3.1	
